For test [1], the system named is Proteus mirabilis (P. mirabilis, ATCC 29906) standard strain. Briefly: Antibacterial property of polymerizable antibacterial monomer against Proteus mirabilis (absorbance at 600 nm). The format is cell-based. To be noted: 18 hours at 35° C.; for Optical density: diluted to 1/5, 600 nm. The protocol:
The monomer was put in a 50 ml conical tube according to the content of Table 1 below, and then 25 ml of a nutrient broth (Becton Dickinson) solution, to which 3000±300 CFU/ml of E. coli (ATCC 25922) standard strain was inoculated, was injected. After culturing for 18 hours in a shaking incubator (Vision Scientific, VS-37SIF) at 35° C., the culture solution was diluted to ⅕ concentration using 1× PBS (Gibco). The absorbance of the diluted solution was measured at a wavelength of 600 nm using a UV-Vis spectrophotometer. At this time, the absorbance measured after culturing the nutrient broth solution to which the bacteria was inoculated without the addition of the monomer was compared to the absorbance of the sample to which the monomer was added, and the degree of growth of the bacteria was examined. The bacterial growth-inhibitory rate was calculated according to the following Equation 1, and the results are shown in Table 1 below. To examine the antibacterial properties of the monomer 2-(tert-butylamino)ethyl methacrylate included in Examples and the monomer 2-(dimethylamino)ethyl methacrylate against Proteus mirabilis, the bacterial growth-inhibitory rate (%) against Proteus mirabilis (P. mirabilis) was calculated in the same manner as in the antibacterial property evaluation for E. coli, except that a nutrient broth solution, to which 3000±300 CFU/ml of Proteus mirabilis (P. mirabilis, ATCC 29906) standard strain was inoculated instead of E. coli (ATCC 25922), was used. In calculating the bacteriostatic reduction rate using Equation 1, CReference represents CFU of bacteria after culturing with the monomer of Comparative Experimental Example 2-1 without the antibacterial material.

In test [2] the test system is E. coli (ATCC 25922) standard strain. Kind of test: Antibacterial property of polymerizable antibacterial monomer against E. coli (absorbance at 600 nm). To be noted: 18 hours at 35° C.; for Optical density: diluted to 1/5, 600 nm. Type of test: cell-based, Escherichia coli. As for the experimental part:
The monomer was put in a 50 ml conical tube according to the content of Table 1 below, and then 25 ml of a nutrient broth (Becton Dickinson) solution, to which 3000±300 CFU/ml of E. coli (ATCC 25922) standard strain was inoculated, was injected. After culturing for 18 hours in a shaking incubator (Vision Scientific, VS-37SIF) at 35° C., the culture solution was diluted to ⅕ concentration using 1× PBS (Gibco). The absorbance of the diluted solution was measured at a wavelength of 600 nm using a UV-Vis spectrophotometer. At this time, the absorbance measured after culturing the nutrient broth solution to which the bacteria was inoculated without the addition of the monomer was compared to the absorbance of the sample to which the monomer was added, and the degree of growth of the bacteria was examined. The bacterial growth-inhibitory rate was calculated according to the following Equation 1, and the results are shown in Table 1 below. Bacterial growth-inhibitory rate(%)=[(ODReference−ODsample)/ODReference]*100 [Equation 1] in Equation, ODReference represents absorbance of the culture medium of Comparative Experimental Example 1-1 without the antibacterial material, and ODsample represents absorbance of the culture medium with the antibacterial material.

Where [3] appears, read: 0.03 g monomer in 25 ml nutrient broth.
Setting [4] is: 0.05 g monomer in 25 ml nutrient broth.
[5] abbreviates: 0.07 g monomer in 25 ml nutrient broth.

The structures appear in SMILES notation.

Consider `C=C(C)C(=O)OCCN(C)C` [2-(dimethylamino)ethyl methacrylate], for which the “Bacterial growth-inhibitory rate (%)” value in test [1] (setting [3]) is listed as 3.37%; in test [1] (setting [4]), 20.22%; in test [1] (setting [5]), 67.98%; in test [2] (setting [3]), 0.00%; in test [2] (setting [4]), 3.67%; in test [2] (setting [5]), 23.98%. Moreover, the Optical density in test [1] (setting [3]) is given as 0.172; in test [1] (setting [4]) it was 0.142; in test [1] (setting [5]), 0.057; in test [2] (setting [3]), 0.196; in test [2] (setting [4]), 0.189; in test [2] (setting [5]) it was 0.149.

Take `C=C(C)C(=O)OCCNC(C)(C)C` [2-(tert-butylamino)ethyl methacrylate]: the “Bacterial growth-inhibitory rate (%)” value is given as 19.10% in test [1] (setting [3]); 43.82% in test [1] (setting [4]); 94.94% in test [1] (setting [5]); 5.61% in test [2] (setting [3]); 64.29% in test [2] (setting [4]); 95.41% in test [2] (setting [5]). The Optical density in test [1] (setting [3]) is 0.144; in test [1] (setting [4]), 0.100; in test [1] (setting [5]), 0.009; in test [2] (setting [3]), 0.185; in test [2] (setting [4]), 0.070; in test [2] (setting [5]), 0.009.

These data come from patent US20230405552A1, “Super Absorbent Polymer and Preparation Method Thereof” (LG Chem, Ltd., priority 2021, published 2023).
